Source: PMC10449621, “Engineering cellular communication between light-activated synthetic cells and bacteria” (Nature Chemical Biology, 2023)
Where “and” joins values, the source holds several entries; their conditions need not be identical. Identical values can stand only once.

How the values were obtained:
[1] = system: BjaRS107R (B0033|ATG) receiver cells; assay: BjaR receiver cell AHSL dose-response (gfp reporter, plate reader); assay type: cell-based, E. coli XL10-Gold; details: for EC50: IV-HSL-activated gfp expression; for Mean normalised fluorescence / Normalised fluorescence / GFP: sheet 3d; for Normalised fluorescence / GFP: Expt1-3; for GFP: raw fluorescence ex 488/em 510 nm
Description: (§1) These findings are consistent with the predicted translation initiation rates of the respective sequences—translation from the BBa_B0033 RBS provides 1% of protein yield compared to the BBa_B0034 RBS, just as an CTG start codon provides 1% of the protein yield compared to an ATG start codon[30],[31]. This also offers support as to why the ON-state gfp expression level increased in variants with a tighter OFF-state; more cellular resources were available for GFP synthesis when comparatively fewer were allocated to BjaR synthesis. To elucidate the impact of the S107R variant on gene circuit performance, we introduced the S107R variant alone back into the bjaRWT gene, in the context of the BBa_B0033 RBS background.
(§2) In addition to quantifying how these BjaR receiver cells responded to their branched, cognate ligand, we also sought to determine whether the BjaR receiver cells could be activated by structurally dissimilar AHSLs involved in the LuxI/R, EsaI/R, LasI/R and RhlI/R QS systems previously used in synthetic cell communication[5],[7],[8]. To this end, we measured the fluorescence of BjaR receiver cells grown in the presence of their activators, 3OC6-HSL, 3OC12-HSL and C4-HSL, respectively (Supplementary Fig. 13a).
(§3) The BjaR reporter plasmids were retransformed into E. coli XL10-Gold cells for each experiment. A single colony was used to inoculate 5 ml LB + Amp media and incubated at 37 °C, 225 r.p.m. overnight. Overnight cultures were diluted 1/250 or 1/500 in 5 ml M9 minimal media + Amp and incubated at 37 °C, 225 r.p.m. for 3 h and 45 min (until OD600 = ~0.075). Cultures were diluted down to OD600 = 0.05 with M9 minimal media + Amp, and 200 µl was added to wells of a 96-well plate containing 1 µl IV-HSL dissolved in DMSO or 1 µl BjaI CFPS reactions (IV-HSL concentrations obtained from serial dilution from 63.2 µM to 632 pM; final DMSO concentration = 0.5%). Cells were incubated at 37 °C, 800 r.p.m., in a thermomixer with a heated lid for 4 h. Fluorescence and OD600 were measured in a Tecan M1000 infinite plate reader (excitation, 488 nm; emission, 510 nm; bandwidth, 5 nm; gain, 101 and z position, 21,311 µm). The dose–response curves were fitted to the function indicated by Eq. (1), where a = maximal fluorescence output, b = basal fluorescence output, X = concentration of AHSL, GFP = fluorescence at the given condition, EC50 = AHSL at 50% maximal fluorescence output and h = hill coefficient. EC50 and h were derived using the nonlinear regression model based on Eq. (1), in MATLAB. A summary of the dose–response data is available in Supplementary Table 1.1 GFP=b+a−b/1+10^logEC50−X×h

[2] = system: BjaRWT (B0033|ATG) receiver cells; assay: as above; assay type: cell-based, E. coli XL10-Gold
Description: as §1, §2, §3

CC(C)CC(=O)N[C@H]1CCOC1=O [IV-HSL, N-isovaleryl-L-homoserine lactone]
EC50 ([1]; Escherichia coli): 630 ± 100 pM
EC50 [1]: 600 pM
Mean normalised fluorescence ([1]; Log([ASHL]) -6.5): 211248
Normalised fluorescence ([1]; Log([ASHL]) -6.5): 231337 and 193994 and 208414
GFP ([1]; Log([ASHL]) -6.5): 43152 and 44129 and 37797
Mean normalised fluorescence ([1]; Log([ASHL]) -7): 191564
Normalised fluorescence ([1]; Log([ASHL]) -7): 219307 and 167549 and 187835
GFP ([1]; Log([ASHL]) -7): 41241 and 42932 and 36852
Mean normalised fluorescence ([1]; Log([ASHL]) -7.5): 185367
Normalised fluorescence ([1]; Log([ASHL]) -7.5): 205336 and 163229 and 187535
GFP ([1]; Log([ASHL]) -7.5): 40980 and 43296 and 37356
Mean normalised fluorescence ([1]; Log([ASHL]) -8): 184023
Normalised fluorescence ([1]; Log([ASHL]) -8): 162110 and 183388 and 206570
GFP ([1]; Log([ASHL]) -8): 43713 and 37962 and 41577
Mean normalised fluorescence ([1]; Log([ASHL]) -8.5): 162300
Normalised fluorescence ([1]; Log([ASHL]) -8.5): 147294 and 166971 and 172634
GFP ([1]; Log([ASHL]) -8.5): 45027 and 40097 and 44703
Mean normalised fluorescence ([1]; Log([ASHL]) -9): 128394
Normalised fluorescence ([1]; Log([ASHL]) -9): 124444 and 123486 and 137251
GFP ([1]; Log([ASHL]) -9): 38352 and 35601 and 39674
Mean normalised fluorescence ([1]; Log([ASHL]) -9.5): 61565.3
Normalised fluorescence ([1]; Log([ASHL]) -9.5): 61061.7 and 58710.4 and 64923.7
GFP ([1]; Log([ASHL]) -9.5): 18880 and 16008 and 17944
Mean normalised fluorescence ([1]; Log([ASHL]) -10): 14778.4
Normalised fluorescence ([1]; Log([ASHL]) -10): 13513.8 and 15594 and 15227.4
GFP ([1]; Log([ASHL]) -10): 4242 and 4261 and 4330
Mean normalised fluorescence ([1]; Log([ASHL]) -10.5): 3859.05
Normalised fluorescence ([1]; Log([ASHL]) -10.5): 3719.9 and 3832.44 and 4024.82
GFP ([1]; Log([ASHL]) -10.5): 1247 and 1149 and 1212
Mean normalised fluorescence ([1]; Log([ASHL]) -11): 2518.58
Normalised fluorescence ([1]; Log([ASHL]) -11): 2198.08 and 2463.87 and 2893.8
GFP ([1]; Log([ASHL]) -11): 781 and 756 and 889
Mean normalised fluorescence ([1]; Log([ASHL]) -11.5): 1640.38
Normalised fluorescence ([1]; Log([ASHL]) -11.5): 1511.18 and 1789.62 and 1620.34
GFP ([1]; Log([ASHL]) -11.5): 546 and 584 and 517
sensitivity to IV-HSL relative to BjaRWT (B0033|ATG) ([1]; more sensitive than BjaRWT (B0033|ATG)): > 6 ×
fold activation of gene expression (activation range) ([1]; with vs without IV-HSL): 135 fold
EC50 ([2]; Escherichia coli, IV-HSL-activated gfp expression): 3930 ± 380 pM
hill coefficient ([2]; IV-HSL dose-response curve): 1.38
GFP ([2]; Log([ASHL]) -6.5): 47248 and 37500
Mean normalised fluorescence ([2]; Log([ASHL]) -6.5): 200159
Normalised fluorescence ([2]; Log([ASHL]) -6.5): 212521 and 200332 and 187623
Mean normalised fluorescence ([2]; Log([ASHL]) -6.5, sheet 3e): 184419
Mean normalised fluorescence ([2]; Log([ASHL]) -6.5, sheet 3d): 198983
Normalised fluorescence ([2]; Log([ASHL]) -6.5, sheet 3d, Expt1-3): 211719 and 182929
GFP ([2]; Log([ASHL]) -7): 45353 and 37555
Mean normalised fluorescence ([2]; Log([ASHL]) -7): 189629
Normalised fluorescence ([2]; Log([ASHL]) -7): 198623 and 195600 and 174664
Mean normalised fluorescence ([2]; Log([ASHL]) -7, sheet 3e): 176709
Mean normalised fluorescence ([2]; Log([ASHL]) -7, sheet 3d): 188606
Normalised fluorescence ([2]; Log([ASHL]) -7, sheet 3d, Expt1-3): 197885 and 170457
GFP ([2]; Log([ASHL]) -7.5): 45933 and 37587 and 40718
Mean normalised fluorescence ([2]; Log([ASHL]) -7.5): 182276
Normalised fluorescence ([2]; Log([ASHL]) -7.5): 179523 and 192948 and 174359
Mean normalised fluorescence ([2]; Log([ASHL]) -7.5, sheet 3e): 170191
Mean normalised fluorescence ([2]; Log([ASHL]) -7.5, sheet 3d): 181297
Normalised fluorescence ([2]; Log([ASHL]) -7.5, sheet 3d, Expt1-3): 178915 and 170205 and 194772
GFP ([2]; Log([ASHL]) -8): 37611 and 40673
Mean normalised fluorescence ([2]; Log([ASHL]) -8): 167362
Normalised fluorescence ([2]; Log([ASHL]) -8): 183805 and 164832 and 153451
Mean normalised fluorescence ([2]; Log([ASHL]) -8, sheet 3e): 154256
Mean normalised fluorescence ([2]; Log([ASHL]) -8, sheet 3d): 166513
Normalised fluorescence ([2]; Log([ASHL]) -8, sheet 3d, Expt1-3): 161111 and 185459
GFP ([2]; Log([ASHL]) -8.5): 37118 and 36825
Mean normalised fluorescence ([2]; Log([ASHL]) -8.5): 127411
Normalised fluorescence ([2]; Log([ASHL]) -8.5): 156949 and 139152 and 86132.6
Mean normalised fluorescence ([2]; Log([ASHL]) -8.5, sheet 3e): 106537
Mean normalised fluorescence ([2]; Log([ASHL]) -8.5, sheet 3d): 126734
Normalised fluorescence ([2]; Log([ASHL]) -8.5, sheet 3d, Expt1-3): 136219 and 158173
Mean normalised fluorescence ([2]; Log([ASHL]) -9): 62693.3
Mean normalised fluorescence ([2]; Log([ASHL]) -9, sheet 3e): 40066
Mean normalised fluorescence ([2]; Log([ASHL]) -9, sheet 3d): 62287.6
Mean normalised fluorescence ([2]; Log([ASHL]) -9.5): 17191.4
Mean normalised fluorescence ([2]; Log([ASHL]) -9.5, sheet 3e): 9895.56
Mean normalised fluorescence ([2]; Log([ASHL]) -9.5, sheet 3d): 17095.5
Mean normalised fluorescence ([2]; Log([ASHL]) -10): 3897.48
Mean normalised fluorescence ([2]; Log([ASHL]) -10, sheet 3e): 2635.87
Mean normalised fluorescence ([2]; Log([ASHL]) -10, sheet 3d): 3848.29
GFP ([2]; Log([ASHL]) -10.5): 559 and 459
Mean normalised fluorescence ([2]; Log([ASHL]) -10.5): 1658.33
Normalised fluorescence ([2]; Log([ASHL]) -10.5): 2009.19 and 1558.44 and 1407.36
Mean normalised fluorescence ([2]; Log([ASHL]) -10.5, sheet 3e): 1317.17
Mean normalised fluorescence ([2]; Log([ASHL]) -10.5, sheet 3d): 1623.48
Normalised fluorescence ([2]; Log([ASHL]) -10.5, sheet 3d, Expt1-3): 1531.14 and 2041.25
GFP ([2]; Log([ASHL]) -11): 433 and 333 and 432
Mean normalised fluorescence ([2]; Log([ASHL]) -11): 1322.92
Normalised fluorescence ([2]; Log([ASHL]) -11): 1515.8 and 1009.39 and 1443.57
Mean normalised fluorescence ([2]; Log([ASHL]) -11, sheet 3e): 1095.36
Mean normalised fluorescence ([2]; Log([ASHL]) -11, sheet 3d): 1289.12
Normalised fluorescence ([2]; Log([ASHL]) -11, sheet 3d, Expt1-3): 995.025 and 1544.75 and 1327.6
GFP ([2]; Log([ASHL]) -11.5): 418 and 424 and 326
Mean normalised fluorescence ([2]; Log([ASHL]) -11.5): 1299.42
Normalised fluorescence ([2]; Log([ASHL]) -11.5): 1462.99 and 1426.41 and 1008.84
Mean normalised fluorescence ([2]; Log([ASHL]) -11.5, sheet 3e): 1097.76
Mean normalised fluorescence ([2]; Log([ASHL]) -11.5, sheet 3d): 1265.1
Normalised fluorescence ([2]; Log([ASHL]) -11.5, sheet 3d, Expt1-3): 994.106 and 1309.43 and 1491.76
